{
  "source": "patent US20080044452A1",
  "about": "“DRUG DELIVERY SYSTEM FOR TREATMENT OF TRANSITIONAL CELL CARCINOMA” (priority 2006, published 2008)",
  "origin": "cited, not measured here",
  "data": [
    {"smiles": "CO[C@@]12[C@H](COC(N)=O)C3=C(C(=O)C(C)=C(N)C3=O)N1C[C@@H]1N[C@@H]12", "note": "[Mitomycin C]", "values": [
      {"measurement": "stability in acidic urine", "value": "not stable in acidic urine"}
    ]}
  ]
}
